This note sets out measurements from ChEMBL document CHEMBL1131978, “3D QSAR studies on new oxazolidinone antibacterial agents by comparative molecular field analysis” (Bioorg Med Chem Lett, 1999).

Values after ≈ are worked out from the molar mass of the structure shown.

This assay has as its system Staphylococcus aureus. The experiment in a line: In vitro antibacterial activity against the methicillin-resistant Staphylococcus aureus 88. The format is functional.
The term MIC denotes the lowest concentration that inhibits growth of the organism. For the molecule `CC(=O)NC[C@H]1CN(c2ccc(N3CCN(Cc4cc(-c5ccc(F)cc5)no4)CC3)c(F)c2)C(=O)O1`, the “Log 1/MIC” value was -0.49 and it took 3.12 µg/mL (≈ 6.1 µM) to inhibit growth (MIC).
Turning to `CC(=O)NC[C@H]1CN(c2ccc(N3CCN(Cc4cc(-c5ccc(C#N)cc5)no4)CC3)c(F)c2)C(=O)O1`, the “Log 1/MIC” value was -0.8 and the MIC amounted to 6.25 µg/mL (≈ 12.1 µM).
Take `CC(=O)NC[C@H]1CN(c2ccc(N3CCN(C(=O)c4cc(-c5cnsn5)no4)CC3)c(F)c2)C(=O)O1`: the “Log 1/MIC” value is listed as -0.19 and 1.56 µg/mL (≈ 3.03 µM) was the least that counted as inhibitory (MIC).
For `CC(=O)NC[C@H]1CN(c2ccc(N3CCN(Cc4cc(-c5ccc(Oc6ccccc6)cc5)no4)CC3)c(F)c2)C(=O)O1`, the “Log 1/MIC” value is on record as -2 and inhibition of growth (MIC) required 100 µg/mL (≈ 171 µM).
`CC(=O)NC[C@H]1CN(c2ccc(N3CCN(C(=O)c4cccs4)CC3)c(F)c2)C(=O)O1`: the “Log 1/MIC” value is on record as -0.19 and the minimum inhibitory concentration (MIC) came out at 1.56 µg/mL (≈ 3.49 µM).
For the molecule `COc1cc(C(=O)N2CCN(c3ccc(N4C[C@H](CNC(C)=O)OC4=O)cc3F)CC2)on1`, the “Log 1/MIC” value is on record as -0.19 and the MIC was 1.56 µg/mL (≈ 3.38 µM).
The corresponding values for `CC(=O)NC[C@H]1CN(c2ccc(N3CCN(C(=O)CO)CC3)c(F)c2)C(=O)O1` [EPEREZOLID] are -0.19 and 1.56 µg/mL (≈ 3.96 µM).
With `COc1cccc(-c2cc(CN3CCN(c4ccc(N5C[C@H](CNC(C)=O)OC5=O)cc4F)CC3)on2)c1`, the “Log 1/MIC” value is -0.49 and the MIC is 3.12 µg/mL (≈ 5.96 µM).
For the molecule `CC(=O)NC[C@H]1CN(c2ccc(N3CCN(C(=O)c4cc(C(F)(F)F)no4)CC3)c(F)c2)C(=O)O1`, the “Log 1/MIC” value was -0.49 and 3.12 µg/mL (≈ 6.25 µM) was the least that counted as inhibitory (MIC).
The corresponding values for `CC(=O)NC[C@H]1CN(c2ccc(N3CCN(Cc4cc(/C=C/c5ccccc5)no4)CC3)c(F)c2)C(=O)O1` are -1.4 and 25 µg/mL (≈ 48.1 µM).
For the molecule `CC(=O)NC[C@H]1CN(c2ccc(N3CCN(C(=O)c4cc(-c5cccs5)no4)CC3)c(F)c2)C(=O)O1`, the “Log 1/MIC” value is listed as -0.11 and it took 0.78 µg/mL (≈ 1.52 µM) to inhibit growth (MIC).
The corresponding values for `CC(=O)NC[C@H]1CN(c2ccc(N3CCN(C(=O)c4cc(C)no4)CC3)c(F)c2)C(=O)O1` are -0.19 and 1.56 µg/mL (≈ 3.5 µM).
`CC(=O)NC[C@H]1CN(c2ccc(N3CCN(C(=O)c4cc(C(=O)N(C)C)no4)CC3)c(F)c2)C(=O)O1`: the “Log 1/MIC” value was -0.49 and the lowest concentration to inhibit growth (MIC) was 3.12 µg/mL (≈ 6.21 µM).
Take `CC(=O)NC[C@H]1CN(c2ccc(N3CCN(Cc4cc(-c5ccccn5)no4)CC3)c(F)c2)C(=O)O1`: the “Log 1/MIC” value is reported as -0.19 and the minimum inhibitory concentration (MIC) came out at 1.56 µg/mL (≈ 3.15 µM).
Turning to `CC(=O)NC[C@H]1CN(c2ccc(N3CCOCC3)c(F)c2)C(=O)O1` [LINEZOLID], the MIC is 1.56 µg/mL (≈ 4.62 µM).
Take `CC(=O)NC[C@H]1CN(c2ccc(N3CCN(C(=O)c4nccs4)CC3)c(F)c2)C(=O)O1`: the “Log 1/MIC” value was -0.19 and it took 1.56 µg/mL (≈ 3.49 µM) to inhibit growth (MIC).
As for `COc1cc(CN2CCN(c3ccc(N4C[C@H](CNC(C)=O)OC4=O)cc3F)CC2)on1`, the “Log 1/MIC” value was -0.49 and it took 3.12 µg/mL (≈ 6.97 µM) to inhibit growth (MIC).
The corresponding values for `COc1ccc(-c2cc(CN3CCN(c4ccc(N5C[C@H](CNC(C)=O)OC5=O)cc4F)CC3)on2)cc1OC` are -0.49 and 3.12 µg/mL (≈ 5.64 µM).
For `CC(=O)NC[C@H]1CN(c2ccc(N3CCN(C(=O)c4cc(COC(N)=O)no4)CC3)c(F)c2)C(=O)O1`, in that order: -0.19 and 1.56 µg/mL (≈ 3.09 µM).
Regarding `CC(=O)NC[C@H]1CN(c2ccc(N3CCN(C(=O)c4cc(C(N)=O)no4)CC3)c(F)c2)C(=O)O1`, the “Log 1/MIC” value was -0.19 and the minimum inhibitory concentration (MIC) is 1.56 µg/mL (≈ 3.29 µM).
Take `CC(=O)NC[C@H]1CN(c2ccc(N3CCN(C(=O)c4cc(C(=O)O)no4)CC3)c(F)c2)C(=O)O1`: the “Log 1/MIC” value is -2 and 100 µg/mL (≈ 210 µM) was the least that counted as inhibitory (MIC).
The corresponding values for `CC(=O)NC[C@H]1CN(c2ccc(N3CCN(Cc4cc(-c5ccc(C)cc5)no4)CC3)c(F)c2)C(=O)O1` are -1.1 and 12.5 µg/mL (≈ 24.6 µM).
Turning to `CC(=O)NC[C@H]1CN(c2ccc(N3CCN(C(=O)c4cc(Cl)no4)CC3)c(F)c2)C(=O)O1`, the “Log 1/MIC” value worked out at 0.11 and 0.78 µg/mL (≈ 1.67 µM) was the least that counted as inhibitory (MIC).
With `CC(=O)NC[C@H]1CN(c2ccc(N3CCN(C(=O)c4cc(-c5nccs5)no4)CC3)c(F)c2)C(=O)O1`, the “Log 1/MIC” value is given as 0.41 and the MIC worked out at 0.39 µg/mL (≈ 0.758 µM).
The corresponding values for `CC(=O)NC[C@H]1CN(c2ccc(N3CCN(Cc4cc(-c5ccc(Cl)cc5)no4)CC3)c(F)c2)C(=O)O1` are -1.7 and 50 µg/mL (≈ 94.7 µM).
In the case of `CC(=O)NC[C@H]1CN(c2ccc(N3CCN(C(=O)c4cc(COC(=O)N(C)C)no4)CC3)c(F)c2)C(=O)O1`, the “Log 1/MIC” value is on record as -0.49 and the MIC stood at 3.12 µg/mL (≈ 5.86 µM).
Consider `CCCCCCCCCCS(=O)(=O)N[C@H](CCCCCC)COP(=O)(O)OCCO`, for which the “Log 1/MIC” value is given as -0.19 and the minimum inhibitory concentration (MIC) came out at 1.56 µg/mL (≈ 3.29 µM).
For `CC(=O)NC[C@H]1CN(c2ccc(N3CCN(C(=O)c4cc(OCCF)no4)CC3)c(F)c2)C(=O)O1`, the “Log 1/MIC” value is recorded as -0.19 and the MIC worked out at 1.56 µg/mL (≈ 3.16 µM).
As for `CC(=O)NC[C@H]1CN(c2ccc(N3CCN(C(=O)c4ccno4)CC3)c(F)c2)C(=O)O1`, the “Log 1/MIC” value is on record as -0.19 and the minimum inhibitory concentration (MIC) turned out to be 1.56 µg/mL (≈ 3.62 µM).
On to `CC(=O)NC[C@H]1CN(c2ccc(N3CCN(C(=O)c4cc(-c5csnn5)no4)CC3)c(F)c2)C(=O)O1`, for which the “Log 1/MIC” value is on record as 0.11 and the MIC is 0.78 µg/mL (≈ 1.51 µM).
With `CC(=O)NC[C@H]1CN(c2ccc(N3CCN(C(=O)c4cc(O)no4)CC3)c(F)c2)C(=O)O1`, the “Log 1/MIC” value was -1.7 and 50 µg/mL (≈ 112 µM) was the least that counted as inhibitory (MIC).
The corresponding values for `CC(=O)NC[C@H]1CN(c2ccc(N3CCN(C(=O)c4cc(Br)no4)CC3)c(F)c2)C(=O)O1` are 0.11 and 0.78 µg/mL (≈ 1.53 µM).
With `CC(=O)NC[C@H]1CN(c2ccc(N3CCN(C(=O)c4cc(C#N)no4)CC3)c(F)c2)C(=O)O1`, the “Log 1/MIC” value was -0.19 and the lowest concentration to inhibit growth (MIC) was 1.56 µg/mL (≈ 3.42 µM).
